This experiment relates to NL4-3 strain of HIV-1. Briefly: HIV-1 replication assay: cyto-protection of MT4 cells infected with NL4-3 virus, CellTiter-Glo viability readout. In kind it is cell-based. The note with it: Human immunodeficiency virus 1, NL43, 120 h; concentration leading to 50% of cyto-protection; MT4 cells infected with NL4-3 virus; 5 days incubation; CellTiter-Glo; read-out: EC50. As to the method:
The antiviral activity, particularly against HIV, of compounds according to the invention is evaluated by the protocol described below.
Preparation of Virus stock of the NL4-3 strain of HIV-1 (Adachi et al, J Virol, 1986, 59(2):284-91).
The virus was prepared as described in Lopez et al (Lopez et al, Proc Natl Acad Sci USA., 2006, 103(40):14947-52, by transfecting 2×10^6 293 T cells (CRL-1573, ATCC) with following modifications: 6 μg of NL4-3 proviral DNA molecular clone were mixed with X-tremeGENE 9 DNA transfection reagent from Roche, and used according to manufacturer's instructions. Twenty four hours later, cells were washed and fresh medium added. Forty eight hours after transfection, cell supernatants were harvested, filtered through 0.45-μm-pore-size filters, quantified for HIV-1 p24 antigen by using an Innotest HIV antigen mAb assay (Ingen) according to manufacturer's instructions, and used in infection experiments.
Serial dilutions of compounds to be tested were prepared in complete RPMI medium from 10 mM DMSO stock solutions, and distributed in a volume of 20 μl in 96 well tissue-culture treated plates (Costar 3917), in order to get 0.5% DMSO final concentration in each well, after the addition of infected cells. Control wells contained also 0.5% DMSO final concentration but no compound.
MT4 cells (from the NIH AIDS Research and Reference Reagent Program) in RPMI complete medium were counted (10×10^6 cells per well in Falcon 353047 Multiwell™ 24 well) and infected for 2 hours at 37°, at a multiplicity of infection (moi) of 0.0001-0.00001. Cells were then centrifuged for 3 min at 3000 rpm, and washed two times in 1 ml PBS to remove viruses that have not entered the cells. Infected cells were resuspended in complete RPMI at 1.25×10^6 cells/ml, and 80 μl of infected cells were distributed in each well containing compounds to be tested or control wells. The plates were then incubated at 37° C. for 5 days.
Assay used to measure the inhibition of HIV replication by the compounds (according to Gregg S. Jones et al., Antimicrobial Agents and Chemotherapy, 2009, 53 (3): 1194-1203).
After 5 days of incubation, microplates were equilibrated to room temperature for 30 min and then 50 μl of CellTiter-Glo reagent (Promega Biosciences, Inc., Madison Wis., USA) were added to each well. Cell lysis was carried out at room temperature during 10 min and luminescence was read on a Fluoroskan (Thermo Scientific).
The EC50, or effective concentration 50, is the concentration of compound leading to 50% of cyto-protection in a CellTiter-Glo® viability assay based on MT4 cells infected with NL4-3 virus (table 1).
As to `Cc1ccc(C2(C)CC2)c(-c2ccc3c(c2)CCCO3)c1C(OC(C)(C)C)C(=O)O` (stereo not shown) [Example 25, tert-butoxy-[2-chroman-6-yl-6-methyl-3-(1-methyl-cyclopropyl)-phenyl]-acetic acid], the EC50 worked out at 200 nM.
With `O=C(O)C(OC1CC1)c1c(C(F)(F)F)ccc(C2CC2)c1-c1ccc2c(c1)CCCO2` (stereo not shown) [Example 27, (2-chroman-6-yl-3-cyclopropyl-6-trifluoromethyl-phenyl)-cyclopropoxy-acetic acid] the figure was 280 nM; with `CCCOC(C(=O)O)c1c(C)ccc(C2CC2)c1-c1ccc2c(c1)CCCO2` (stereo not shown) [Example 28, (2-chroman-6-yl-3-cyclopropyl-6-methyl-phenyl)-propoxy-acetic acid], 500 nM.
With `Cc1ccc(C2CC2)c(-c2ccc3c(c2)CCCO3)c1C(OCC1CC1)C(=O)O` (stereo not shown) [Example 29, (2-chroman-6-yl-3-cyclopropyl-6-methyl-phenyl)-cyclopropyl methoxy-acetic acid] the figure was 500 nM; with `Cc1ccc(C2CC2)c(-c2ccc3c(c2)CCCO3)c1C(OCC(F)(F)F)C(=O)O` (stereo not shown) [Example 30, (2-chroman-6-yl-3-cyclopropyl-6-methyl-phenyl)-(2,2,2-trifluoro-ethoxy)-acetic acid], 860 nM.
The figure for `CCCc1ccc(C)c(C(OC(C)C)C(=O)O)c1-c1ccc2c(c1)CCCO2` (stereo not shown) [Example 31] is 1000 nM; for `Cc1ccc(C2CC2)c(-c2ccc3c(c2C)CCCO3)c1C(OC1CC1)C(=O)O` (stereo not shown) [Example 32, cyclopropoxy-[3-cyclopropyl-6-methyl-2-(5-methyl-chroman-6-yl)-phenyl]-acetic acid] it is 32 nM.
Consider `Cc1ccc(C2CC2)c(-c2ccc3c(c2)CCCO3)c1C(OC1CCC1)C(=O)O` (stereo not shown) [Example 33, (2-chroman-6-yl-3-cyclopropyl-6-methyl-phenyl)-cyclobutoxy-acetic acid], for which the EC50 came to 450 nM.
The figure for `Cc1ccc(C2CC2)c(-c2ccc3c(c2)CCCO3)c1C(OCC(F)F)C(=O)O` (stereo not shown) [Example 34, (2-chroman-6-yl-3-cyclopropyl-6-methyl-phenyl)-(2,2-difluoro-ethoxy)-acetic acid] is 440 nM.
With `Cc1ccc(C2CC2)c(-c2ccc3c(c2)CCCO3)c1C(OCCF)C(=O)O` (stereo not shown) [Example 35, (2-chroman-6-yl-3-cyclopropyl-6-methyl-phenyl)-(2-fluoro-ethoxy)-acetic acid] the figure was 830 nM.
Turning to `Cc1ccc(C2CC2)c(-c2ccc3c(c2)CCCO3)c1C(OC(C)C)C(=O)O` (stereo not shown) [Example 36, (2-chroman-6-yl-3-cyclopropyl-6-methyl-phenyl)-isopropoxy-acetic acid], the EC50 stood at 100 nM.
For the molecule `Cc1ccc(C2CC2)c(-c2cc(F)c3c(c2C)CCCO3)c1C(OC1CC1)C(=O)O` (stereo not shown) [Example 37, cyclopropoxy-[3-cyclopropyl-2-(8-fluoro-5-methyl-chroman-6-yl)-6-methyl-phenyl]-acetic acid], the EC50 amounted to 24 nM.
As for `Cc1ccc(C2CC2)c(-c2ccc3c(c2)CCCO3)c1C(OC1(C)CC1)C(=O)O` (stereo not shown) [Example 39, (2-chroman-6-yl-3-cyclopropyl-6-methyl-phenyl)-(1-methyl-cyclopropoxy)-acetic acid], the EC50 was found to be 24 nM.
As to `CC(C)(C)OC(C(=O)O)c1c(-c2ccc3c(c2)CCCO3)c(C2CC2)cc2ncccc12` (stereo not shown) [Example 42, tert-butoxy-(6-chroman-6-yl-7-cyclopropyl-quinolin-5-yl)-acetic acid], the EC50 was determined as 190 nM.
With `Cc1ccc(C2CCC2)c(-c2ccc3c(c2)CCCO3)c1C(OC(C)(C)C)C(=O)O` (stereo not shown) [Example 43, tert-butoxy-(2-chroman-6-yl-3-cyclobutyl-6-methyl-phenyl)-acetic acid] the figure was 94 nM.
With `Cc1ccc(C2CC2)c(-c2ccc3c(c2)CCCO3)c1C(CC1CC1)C(=O)O` (stereo not shown) [Example 45, 3-cyclopropyl-2-[3-cyclopropyl-2-(3,4-dihydro-2H-1-benzopyran-6-yl)-6-methylphenyl]propanoic acid] the figure was 290 nM.

The record behind these values is patent publication US9994509B2, “Inhibitors of viral replication, their process of preparation and their therapeutical uses” (HIVIH, priority 2013, dated 2018).
